In patent US20250115603A1, “CRYSTALLINE FORMS OF A KRAS INHIBITOR” (Incyte Corporation, priority 2023, published 2025):
Where a name gives a salt, the structure may show the parent alone. Marks after values point to notes of the source that are not given here.

What was measured:
Assay type in all cases: physicochemical
[1] = Solubility measurement at 25° C. (HPLC of saturated solution); settings: for solubility: 25 °C, organic solvent or mixture; for Solubility (25° C.): monohydrochloride dihydrate
Procedure: (§1) The solubility of the Compound 1 HCl sample (prepared according to Example 4) was measured according to the procedure for solubility at 25° C. in Table 8 and the procedure for solubility at 50° C. in Table 9.

[2] = Compound 1 hydrochloride polymorph screening; settings: nine polymorphs (Forms I-IX) identified by standard polymorph screening
[3] = Solubility measurement at 50° C. (HPLC of saturated solution); settings: for Solubility (50° C.): monohydrochloride dihydrate; for solubility: 50 °C, organic solvent or mixture
Procedure: as §1

[4] = 2-Methoxyethanol, by visual assessment
[5] = Dimethylformamide, by visual assessment
[6] = n-Propanol, by visual assessment

For Cc1nc2c(F)c(-c3cccc(Cl)c3Cl)c(CCC#N)cc2c2c1cc(C1CC3C[C@H]3N1C(=O)C1CC1)n2C1[C@H]2CN[C@@H]1C2 (atropisomer, axis not shown; (Ra)) [Compound 1 HCl, 3-((Ra)-1-((1R,4R,5S)-2-azabicyclo[2.1.1]hexan-5-yl)-2-((1R,3R,5R)-2-(cyclopropanecarbonyl)-2-azabicyclo[3.1.0]hexan-3-yl)-7-(2,3-dichlorophenyl)-6-fluoro-4-methyl-1H-pyrrolo[3,2-c]quinolin-8-yl)propanenitrile monohydrochloride dihydrate], the solubility [1, 4] was > 50 mg/mL, the “Solubility (25° C.)” value [1, 4] was >50* mg/mL and the solubility ([1]; DMSO, by visual assessment) was > 50 mg/mL. The “Solubility (25° C.)” value ([1]; DMSO, by visual assessment) was >50* mg/mL, the solubility [1, 5] was > 50 mg/mL and the “Solubility (25° C.)” value [1, 5] was >50* mg/mL. The solubility ([1]; MeOH, by visual assessment) was > 50 mg/mL, the “Solubility (25° C.)” value ([1]; MeOH, by visual assessment) was >50* mg/mL and the solubility ([1]; Methyl iso-butyl ketone) was 1 to 15 mg/mL. For the same molecule, the “Solubility (25° C.)” value ([1]; Methyl iso-butyl ketone) was 1.3 mg/mL, the solubility ([1]; Tetrahydrofuran (THF)) was < 1 mg/mL and the “Solubility (25° C.)” value ([1]; Tetrahydrofuran (THF)) was 0.9 mg/mL. For the same molecule, the solubility ([1]; heptane) was 0.01 mg/mL, the solubility ([1]; n-BuOH, by visual assessment) was > 50 mg/mL and the “Solubility (25° C.)” value ([1]; n-BuOH, by visual assessment) was >50* mg/mL. The “Relative stability of crystalline forms of Compound 1 HCl” value [2] was “most stable form”, the “Solubility (50° C.)” value [3, 4] was >50* mg/mL and the solubility ([3]; 2-methoxyethanol, by visual assessment) was > 50 mg/mL. For the same molecule, the “Solubility (50° C.)” value ([3]; 3% MeOH 0.3% water in EtOAc) was 0.8 mg/mL, the solubility ([3]; 3% MeOH, 0.3% water in EtOAc, 3% MeOH 0.3% water in EtOAc) was < 1 mg/mL and the “Solubility (50° C.)” value ([3]; Acetone) was 19.2 mg/mL. The “Solubility (50° C.)” value ([3]; Chloroform) was 21.2 mg/mL, the solubility ([3]; DMSO, by visual assessment) was > 50 mg/mL and the “Solubility (50° C.)” value ([3]; DMSO, by visual assessment) was >50* mg/mL. The “Solubility (50° C.)” value [3, 5] was >50* mg/mL, the solubility ([3]; EtOH) was 15 to 50 mg/mL and the “Solubility (50° C.)” value ([3]; EtOH) was 22.3 mg/mL. For the same molecule, the solubility ([3]; Ethyl formate) was < 1 mg/mL, the “Solubility (50° C.)” value ([3]; Ethyl formate) was 0.6 mg/mL and the solubility ([3]; MeOH, by visual assessment) was > 50 mg/mL. For the same molecule, the “Solubility (50° C.)” value ([3]; MeOH, by visual assessment) was >50* mg/mL, the solubility ([3]; acetone) was 15 to 50 mg/mL and the solubility ([3]; chloroform) was 15 to 50 mg/mL. The solubility ([3]; dimethylformamide, by visual assessment) was > 50 mg/mL, the solubility ([3]; heptane) was 0.02 mg/mL and the “Solubility (50° C.)” value ([3]; iso-Propanol (IPA), by visual assessment) was >50* mg/mL. For the same molecule, the solubility ([3]; iso-propanol (IPA), by visual assessment) was > 50 mg/mL, the solubility ([3]; n-BuOH, by visual assessment) was > 50 mg/mL and the “Solubility (50° C.)” value ([3]; n-BuOH, by visual assessment) was >50* mg/mL. The solubility [3, 6] was > 50 mg/mL and the “Solubility (50° C.)” value [3, 6] was >50* mg/mL.
